# Laboratory results published in patent publication US20080311657A1, “Killing Human Lymphoma and Leukemia Cancer Cells and Tcr-Activated Normal Human Cells By Dopamine D1r Agonists” (priority 2005, published 2008).
# Tests used:
# Assay in all cases: Number of living cells counted by flow cytometry (FACSort) after D1R agonist
# Type in all cases: cell-based
# [1] = test system: Human chronic myelogenous leukemia cells (CML) (K-562); details: for % of the cells killed: living cells counted 3 days later
# [2] = test system: Human Burkitt's B-cell lymphoma (Raji) cells; details: 10^−3M-10^−6M, 3 days
# Method: Afterwards, the microtiter plates were placed in an incubator (37° C., humidified incubator, 5% CO2) for 3 days. Then, the number of living cells was evaluated by flow cytometry (the cells were counted by FACsort for a fixed time length of 1 min, in which 100 microliter of each sample was tested).
# (§1) Cell viability was tested afterwards.
# [3] = test system: TCR-activated normal human T-cells; details: 10^−5 M, 72 hr
# Method: FIGS. 31A and B are graphs showing that A 77636 hydrochloride kills much more TCR-activated (FIG. 31B) than resting normal (FIG. 31A) human T-cells. […] The cells were then transferred to the incubator for 72 hr incubation. At the end of the 72 hr incubation, the number of living cells in each well was evaluated by flow cytometry (the cells were counted by FACsort for a fixed time length of 1 min, in which 100 microliter of each sample was tested).
# Non-tissue culture treated 24-well plates (Falcon, Franklin Lakes, N.J.) were coated overnight at 4° C. with anti-CD3 and anti-CD28 monoclonal antibodies (mabs) (BD Pharmingen, San Jose, Calif.); ([…] in PBS). The wells were then washed with PBS, blocked for 1 hour at 37° C. (PBS/1% BSA), and washed again. The freshly purified normal human T-cells were resuspended in their respective fresh media and seeded in the anti-CD3/CD28 coated wells (1×10^6 per well), and the plates were incubated for 72 hours (37° C., humidified incubator, 5% CO2). Then, the cells and their media were collected from each well, transferred into 50 ml tubes, centrifuged (1200 rpm, 10 minutes) and both the TCR-activated cells and their culture media were collected and transferred into clean separate tubes.
# as §1
smiles,measurement,setting,value
"Cl.NC[C@@H]1O[C@H](C23CC4CC(CC(C4)C2)C3)Cc2c1ccc(O)c2O [A 77636 hydrochloride, (1R-cis)-1-(aminomethyl)-3,4-dihydro-3-tricyclo[3.3.1.13,7]dec-1-yl-[1H]-2-benzopyran-5,6-diol hydrochloride]","Cell death by number of living cells (FIGS. 22-24), in words","[1]; 10^−3M-10^−6M, 3 days",induces marked cell death
same,% of the cells killed,"[1]; 10^−4M, exposure 1 minute then washed",≈ 48%
same,% of the cells killed,"[1]; 10^−4M, exposure 15 minutes then washed",60%
same,% of the cells killed,"[1]; 10^−4M, exposure 1 hour then washed",76%
same,"Killing, in words","[1]; 10^−4M, incubation 72 hours",no additional value beyond the 1-hour effect
same,"Speed of cell death by number of living cells (FIG. 29), in words","[1]; 10^−4M, exposure 1 min, 15 min, 1 hr or 72 hr",very rapid death
same,"Cell death by number of living cells (FIGS. 19-21), in words",[2],induces marked cell death
same,% of cells killed,[3],46%
same,Killing of TCR-activated relative to resting normal human T-cells,[3],3.8 fold
